The results in this text go back to ChEMBL document CHEMBL5149970 (J Med Chem, 2021).

Series [1] has as its system CFU-GM. The series can be described thus: Inhibition of colony formation in human CFU-GM cells assessed as reduction in colony number and size at 1 uM incubated for 14 days by crystal violet staining based analysis. The format is toxicity, cell-based. As to conditions: 336 h, time 14 day.
Series [2] can be described thus: Inhibition of colony formation in human BFU-E cells assessed as reduction in colony number and size at 1 uM incubated for 14 days by crystal violet staining based analysis. As to conditions: 336 h, time 14 day. The format is toxicity, cell-based.
In series [3] the test system is EU-1. The series can be described thus: Inhibition of MDM2/XIAP IRES mRNA interaction in human EU-1 cells assessed as increase in p53 protein expression at 1 uM measured after 2 to 24 hrs by western blot analysis. The class given is cell-based. To be noted: time 2-24 hrs.
Series [4] can be described thus: Antiproliferative activity against human SH-EP1 cells assessed as reduction in cell survival incubated for 48 hrs by WST assay. To be noted: SH-EP1, 48 h. The class given is functional, cell-based.
The nature of series [5]: Antiproliferative activity against human LA1-55n cells assessed as reduction in cell survival incubated for 48 hrs by WST assay. The format is functional, cell-based.
For series [6], the system named is EU-1. The series can be described thus: Inhibition of MDM2/XIAP IRES mRNA interaction in human EU-1 cells assessed as fold change in p53 protein expression at 1 uM measured after 30 mins by CHX chase assay (reference value: 0.38). The class given is cell-based.
In series [7] the test system is EU-1. The series can be described thus: Inhibition of MDM2/XIAP IRES mRNA interaction in human EU-1 cells assessed as fold change in p53 protein expression at 1 uM measured after 120 mins by CHX chase assay (reference value: 0.08). The class given is cell-based.
In series [8] the test system is EU-1. The series can be described thus: Inhibition of MDM2/XIAP IRES mRNA interaction in human EU-1 cells assessed as increase in p21 protein expression at 1 uM measured after 8 hrs by western blot analysis. The class given is cell-based.
Series [9] relates to EU-1. Description: Inhibition of MDM2/XIAP IRES mRNA interaction in human EU-1 cells assessed as increase in caspase-3 cleavage at 1 uM measured after 8 hrs by western blot analysis. The class given is cell-based.
Series [10] is described as follows: AUC in Sprague-Dawley rat at 10 mg/kg, iv measured for 24 hrs by LC-MS/MS analysis. The format is ADME, organism-based. Further details: dose 10 mg/kg, time 24 hrs, route iv. To be noted: in vivo.
The subject of series [11] is EU-1. To be noted: Homo sapiens, dose 1.0 µM, time 4.0 hrs.

The structures appear in SMILES notation. Calls of active or inactive are those of the source. The calls are words filed in the database; no cut-off is given here.

On to `Cc1ccc(NS(=O)(=O)c2ccc3c(c2)C2OCCC2C(c2ccc(C(=O)C(C)C)cc2)N3)cc1C` (stereo unspecified), for which the Activity result in [1] and in [2] was “Non-Toxic” in each case. The inhibition result in series [3], in series [8] and in [9] was “Active” throughout. In addition, the IC50 in series [4] and in series [5] was 500 nM in each case. Besides, the values for the fold change (FC) in [6] and in [7] were 1.06 and 1.14, respectively. The same compound had an AUC in series [10] of 4750 ng·h/mL. This compound yielded a T1/2 in [11] of under 1 h.
